# System: Botrytis cinerea
# Test: Activity against gray mold on bell pepper leaves caused by Botrytis cinerea, protective application (also comparative experiment)
# Format: in vivo
# Details: 5 days, untreated 90
# Procedure: The active compounds were prepared as a stock solution comprising 25 mg of active compound which was made up to 10 ml using a mixture of acetone and/or dimethyl sulfoxide and the emulsifier Uniperol® EL (wetting agent having an emulsifying and dispersing action based on ethoxylated alkylphenols) in a volume ratio of solvent/emulsifier of 99:1. The mixture was then made up to 100 ml with water. This stock solution was diluted with the solvent/emulsifier/water mixture described to give the desired concentration of active compounds.
# Activity Against Gray Mold on Bell Pepper Leaves Caused by Botrytis cinerea, Protective Application
# Bell pepper seedlings of the cultivar “Neusiedler Ideal Elite” were, after 2-3 leaves were well developed, sprayed to runoff point with an aqueous suspension having the concentration of active compounds stated below. The next day, the treated plants were inoculated with a spore suspension of Botrytis cinerea which comprised 1.7×10^6 spores/ml in a 2% strength aqueous biomalt solution. The test plants were then placed into a dark climatized chamber at 22-24° C. and high atmospheric humidity. After 5 days, the extent of the fungal infection on the leaves could be determined visually in %.
# Comparative Experiment—Activity Against Gray Mold on Bell Pepper Leaves Caused by Botrytis cinerea, Protective Application
# Compound No. 47 of Table 1 from EP-A 0 589 301 was compared to compounds 9.17 and 9.20 according to the invention from Table 9.
row,Compound,Infection in % at 250 ppm at BOTRCI P1 [%]
1,Cc1nn(C)cc1C(=O)Nc1ccccc1-c1ccc(F)c(Cl)c1 [9.17],5
2,Cc1nn(C)cc1C(=O)Nc1ccccc1-c1ccc(F)cc1F [9.20],7
3,"Cc1nn(C)cc1C(=O)Nc1ccccc1-c1ccc(F)cc1 [Comp. 47, reference compound]",60
